Patent US20250169496A1, “USE OF 2-AMINO-3-HYDROXY-3-METHYLBUTYRIC ACID AND/OR 2-AMINO-3-(4-HYDROXYPHENYL) BUTYRIC ACID” (NANJING TIANNONG BIOTECHNOLOGY CO., LTD., priority 2021, published 2025)

How the values were obtained:
[1] = tested on: ryegrass under high-temperature stress; assay: Ryegrass under high-temperature stress; assay type: in vivo; settings: for PIABS (photosynthetic performance index): ryegrass after 45° C. for 12 h; for Heat damage index: 45° C. 12 h, recovered 7 d
Protocol: Set 4 groups for each concentration and meanwhile set a room-temperature blank control. Weigh 0.8 g of ryegrass seeds per bowl, sow them in bowls with a diameter of 8.5 cm, and grow in a greenhouse at 25° C., RH 60%-70% and luminous intensity of 200 μmol m^−2s^−1(12 h illumination/12 h darkness). Start treatment after ryegrass has grown for 7 dby the method of spraying a 2-amino-3-(4-hydroxyphenyl) butyric acid solution on the leaf surface twice in 24 h.24 h after the second treatment, transfer them to an illumination incubator of 45° C. for high-temperature stress treatment, and after 12 h, conduct dark treatment at room temperature for 30 min, then determine the chlorophyll fluorescence of […] leaves by plant efficiency Handy-PEA, then transfer the plants to a 25° C. greenhouse and recover them for 7 d, observe and calculate the damage condition of the plants and calculate the heat damage levels. The heat damage grading standard is shown in Table 9 and the heat damage calculation formula is as follows.

rat brain glial cells = settings: concentration of 10μgmL^−1; cited from earlier work
[2] = tested on: Arabidopsis under high-temperature stress; assay: Arabidopsis under high-temperature stress; assay type: in vivo; settings: for PIABS (photosynthetic performance index): Arabidopsis after 45° C. for 12 h; for Heat damage index: 45° C. 12 h, recovered 7 d
Protocol: Take 2-amino-3-hydroxy-3-methylbutyric acid, dissolve it with distilled water, then dilute the solution with distilled water by gradient into 10 nM, 100 nM, 1,000 nM and 10,000 nM solutions, set a blank control, and meanwhile add 0.02% Tween 20 as a surfactant. Set 4 groups for each concentration and meanwhile set a room-temperature blank control. Sow about 50 Arabidopsis seeds in each bowl with a diameter of 8.5 cm, and grow in a greenhouse at 25° C., RH 60%-70% and luminous intensity of 200 μmol m^−2s^−1(16 h illumination/8 h darkness). Start treatment in 21 d of the Arabidopsis seedling stage by the method of spraying a 2-amino-3-hydroxy-3-methylbutyric acid solution on the leaf surface twice in 24 h. 24 h after the second treatment, transfer them to an illumination incubator of 45° C. for high-temperature stress treatment, and after 12 h, conduct dark treatment at room temperature for 30 min, then determine the chlorophyll fluorescence of Arabidopsis leaves by plant efficiency Handy-PEA, then transfer the plants to a 25° C. greenhouse and recover them for 7 d, observe and calculate the damage condition of the plants and calculate the heat damage levels. The heat damage grading standard is shown in Table 9 and the heat damage index calculation formula is as follows.

[3] = 10,000 nM (so in the source), ryegrass, high-temperature stress, vs 0 nM
[4] = 10,000 nM, Arabidopsis, high-temperature stress, vs 0 nM

SMILES: CC(c1ccc(O)cc1)C(N)C(=O)O (stereo not drawn) [2-amino-3-(4-hydroxyphenyl) butyric acid]
- PIABS (photosynthetic performance index) ([1]; 1 nM): 0.78 ± 0.23bc
- Heat damage index ([1]; 1 nM, ryegrass): 81%
- PIABS (photosynthetic performance index) ([1]; 10 nM): 0.95 ± 0.41bc
- Heat damage index ([1]; 10 nM, ryegrass): 66.67%
- PIABS (photosynthetic performance index) ([1]; 100 nM): 1.50 ± 0.54b
- Heat damage index ([1]; 100 nM, ryegrass): 55%
- PIABS (photosynthetic performance index) ([1]; 1,000 nM): 2.61 ± 1.05ab
- Heat damage index ([1]; 1,000 nM, ryegrass): 35%
- Decrease of heat damage index [1, 3]: 55%
- Increase of PIABS [1, 3]: 366%

SMILES: CC(C)(O)C(N)C(=O)O (stereo not drawn) [2-amino-3-hydroxy-3-methylbutyric acid]
- Toxicity to rat brain glial cells (rat brain glial cells): weakly toxic
- PIABS (photosynthetic performance index) ([2]; 10 nM): 10.60 ± 0.32 c
- Heat damage index ([2]; 10 nM, Arabidopsis): 60%
- PIABS (photosynthetic performance index) ([2]; 100 nM): 11.27 ± 0.89 c
- Heat damage index ([2]; 100 nM, Arabidopsis): 45%
- PIABS (photosynthetic performance index) ([2]; 1,000 nM): 13.61 ± 0.38 b
- Heat damage index ([2]; 1,000 nM, Arabidopsis): 20%
- PIABS (photosynthetic performance index) ([2]; 10,000 nM): 15.60 ± 0.78 ab
- Heat damage index ([2]; 10,000 nM, Arabidopsis): 15%
- Decrease of heat damage index [2, 4]: 65%
- Increase of PIABS [2, 4]: 106%
